Assay results from article PMC3685188 (Chemical Research in Toxicology, 2013).

Assays:
rSERT = rSERT (Rattus norvegicus, UniProt P31652); assay: TR_rSERT serotonin transporter binding
gDAT = assay: TR_gDAT dopamine transporter binding; parameters: species or system guinea pig; settings: LCT ∼[…] for non-CYPs; value = assay target as listed
bGABARa5 = assay: LGIC_bGABARa5 binding; parameters: species or system bovine; settings: LCT ∼[…] for non-CYPs; value = assay target as listed
rNNR_BungSens = rNNR_BungSens (Rattus norvegicus, UniProt Q05941); assay: LGIC_rNNR_BungSens binding; settings: LCT ∼[…] for non-CYPs; value = assay target as listed
hETA = hETA (Homo sapiens, UniProt P25101); assay: GPCR_hETA binding; settings: LCT ∼[…] for non-CYPs; value = assay target as listed
hAdrb2 = hAdrb2 (Homo sapiens, UniProt P07550); assay: GPCR_hAdrb2 binding; settings: LCT ∼[…] for non-CYPs; value = assay target as listed
hCYP4F12 = hCYP4F12 (Homo sapiens, UniProt Q9HCS2); assay: ADME_hCYP4F12_Activator; assay type: in vitro ADME; settings: activator assay; LCT ∼0.009 μM for CYPs; value = assay target as listed
mCCKAPeripheral = mCCKAPeripheral (Mus musculus, UniProt O08786); assay type: binding
gSIGMA_NonSelective = assay type: binding, guinea pig; settings: LCT ∼[…] for non-CYPs; value = assay target as listed
hDRD1 = hDRD1 (Homo sapiens, UniProt P21728); assay type: binding; settings: LCT ∼[…] for non-CYPs; value = assay target as listed
hDRD4.4 = hDRD4.4 (Homo sapiens, UniProt P21917); assay type: binding; settings: LCT ∼[…] for non-CYPs; value = assay target as listed
p5HT2C = assay type: binding, boar; settings: LCT ∼[…] for non-CYPs; value = assay target as listed
r5HT_NonSelective = assay: GPCR_r5HT_NonSelective binding; parameters: species or system rat; settings: LCT ∼[…] for non-CYPs; value = assay target as listed
h5HT2A = h5HT2A (Homo sapiens, UniProt P28223); assay type: binding; settings: LCT ∼[…] for non-CYPs; value = assay target as listed
h5HT7 = h5HT7 (Homo sapiens, UniProt P34969); assay: GPCR_h5HT7 binding; settings: LCT ∼[…] for non-CYPs; value = assay target as listed
hNTS = hNTS (Homo sapiens, UniProt P30989); assay: GPCR_hNTS binding; settings: LCT ∼[…] for non-CYPs; value = assay target as listed
hDUSP3 = hDUSP3 (Homo sapiens, UniProt P51452); assay: ENZ_hDUSP3 phosphatase inhibition; assay type: biochemical; settings: LCT ∼[…] for non-CYPs; value = assay target as listed
kinases and phosphatases = assay: kinase and phosphatase assays taken together; assay type: biochemical

hCYP4F12, sequence (Q9HCS2 whole entry): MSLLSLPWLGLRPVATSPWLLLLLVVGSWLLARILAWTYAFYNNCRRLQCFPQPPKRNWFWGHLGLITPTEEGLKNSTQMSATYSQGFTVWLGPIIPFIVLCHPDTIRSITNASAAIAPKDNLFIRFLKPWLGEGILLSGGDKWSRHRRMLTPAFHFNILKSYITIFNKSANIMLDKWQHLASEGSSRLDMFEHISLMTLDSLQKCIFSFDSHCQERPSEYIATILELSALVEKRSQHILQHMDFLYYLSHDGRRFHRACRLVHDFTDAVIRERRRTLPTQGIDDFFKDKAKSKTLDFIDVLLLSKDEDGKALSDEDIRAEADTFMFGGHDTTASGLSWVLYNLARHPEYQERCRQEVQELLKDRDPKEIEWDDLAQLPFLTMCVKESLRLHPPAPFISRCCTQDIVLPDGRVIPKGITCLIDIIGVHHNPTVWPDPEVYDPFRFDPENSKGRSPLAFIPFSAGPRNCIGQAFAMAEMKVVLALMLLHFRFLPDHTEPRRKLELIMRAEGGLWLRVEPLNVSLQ
hAdrb2, sequence (P07550 whole entry): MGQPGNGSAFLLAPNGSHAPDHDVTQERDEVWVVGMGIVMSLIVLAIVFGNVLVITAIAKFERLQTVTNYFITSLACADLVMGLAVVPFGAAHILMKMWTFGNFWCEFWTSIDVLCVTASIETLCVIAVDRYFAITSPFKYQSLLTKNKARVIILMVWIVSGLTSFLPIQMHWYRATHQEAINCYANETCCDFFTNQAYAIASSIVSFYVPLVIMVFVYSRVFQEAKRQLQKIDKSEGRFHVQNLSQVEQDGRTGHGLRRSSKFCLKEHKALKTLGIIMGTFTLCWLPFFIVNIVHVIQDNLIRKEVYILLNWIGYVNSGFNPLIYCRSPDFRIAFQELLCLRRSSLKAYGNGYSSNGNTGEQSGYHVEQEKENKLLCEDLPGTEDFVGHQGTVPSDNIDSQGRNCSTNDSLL
hDRD1, sequence (P21728 whole entry): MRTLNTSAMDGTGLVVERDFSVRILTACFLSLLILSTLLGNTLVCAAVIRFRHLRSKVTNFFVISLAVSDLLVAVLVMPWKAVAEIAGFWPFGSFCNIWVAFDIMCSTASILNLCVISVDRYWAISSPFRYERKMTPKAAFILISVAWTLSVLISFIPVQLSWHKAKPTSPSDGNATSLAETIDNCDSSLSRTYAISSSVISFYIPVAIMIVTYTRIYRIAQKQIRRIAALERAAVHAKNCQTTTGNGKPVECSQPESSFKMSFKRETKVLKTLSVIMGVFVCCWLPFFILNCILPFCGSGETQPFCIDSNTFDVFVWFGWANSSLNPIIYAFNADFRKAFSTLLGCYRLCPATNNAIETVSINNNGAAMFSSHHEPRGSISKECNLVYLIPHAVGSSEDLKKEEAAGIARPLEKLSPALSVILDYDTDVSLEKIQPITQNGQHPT
hDRD4.4, sequence (P21917 whole entry): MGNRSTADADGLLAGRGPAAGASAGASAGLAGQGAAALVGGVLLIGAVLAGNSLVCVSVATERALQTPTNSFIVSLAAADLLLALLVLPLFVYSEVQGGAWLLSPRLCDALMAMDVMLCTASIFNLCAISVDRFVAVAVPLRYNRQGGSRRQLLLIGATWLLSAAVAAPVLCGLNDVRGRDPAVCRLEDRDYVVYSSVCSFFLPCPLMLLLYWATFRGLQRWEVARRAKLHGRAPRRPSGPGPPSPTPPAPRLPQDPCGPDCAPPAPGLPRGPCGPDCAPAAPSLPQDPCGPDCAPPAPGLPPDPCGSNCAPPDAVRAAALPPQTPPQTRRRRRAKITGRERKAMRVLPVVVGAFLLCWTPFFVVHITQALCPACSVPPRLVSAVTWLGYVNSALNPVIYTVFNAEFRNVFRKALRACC
hDUSP3, sequence (P51452 whole entry): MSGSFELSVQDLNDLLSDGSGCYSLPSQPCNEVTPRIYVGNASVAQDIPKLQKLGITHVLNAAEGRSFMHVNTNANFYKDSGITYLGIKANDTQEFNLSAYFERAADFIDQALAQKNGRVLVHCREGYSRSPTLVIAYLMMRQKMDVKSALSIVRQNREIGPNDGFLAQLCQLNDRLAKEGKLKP
h5HT2A, sequence (P28223 whole entry): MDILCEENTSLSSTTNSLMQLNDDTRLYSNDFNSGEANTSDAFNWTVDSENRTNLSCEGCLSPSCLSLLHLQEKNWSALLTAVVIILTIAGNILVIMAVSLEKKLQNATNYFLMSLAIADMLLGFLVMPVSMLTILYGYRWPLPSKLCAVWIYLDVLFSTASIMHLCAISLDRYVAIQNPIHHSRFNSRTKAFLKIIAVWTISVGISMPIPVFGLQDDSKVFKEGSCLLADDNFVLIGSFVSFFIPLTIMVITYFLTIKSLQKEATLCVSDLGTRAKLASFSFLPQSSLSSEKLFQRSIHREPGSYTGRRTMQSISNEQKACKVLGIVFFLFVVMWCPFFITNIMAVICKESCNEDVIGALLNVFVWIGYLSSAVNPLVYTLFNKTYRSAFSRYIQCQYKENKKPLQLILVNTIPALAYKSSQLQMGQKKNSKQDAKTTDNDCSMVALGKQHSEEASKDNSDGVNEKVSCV
h5HT7, sequence (P34969 whole entry): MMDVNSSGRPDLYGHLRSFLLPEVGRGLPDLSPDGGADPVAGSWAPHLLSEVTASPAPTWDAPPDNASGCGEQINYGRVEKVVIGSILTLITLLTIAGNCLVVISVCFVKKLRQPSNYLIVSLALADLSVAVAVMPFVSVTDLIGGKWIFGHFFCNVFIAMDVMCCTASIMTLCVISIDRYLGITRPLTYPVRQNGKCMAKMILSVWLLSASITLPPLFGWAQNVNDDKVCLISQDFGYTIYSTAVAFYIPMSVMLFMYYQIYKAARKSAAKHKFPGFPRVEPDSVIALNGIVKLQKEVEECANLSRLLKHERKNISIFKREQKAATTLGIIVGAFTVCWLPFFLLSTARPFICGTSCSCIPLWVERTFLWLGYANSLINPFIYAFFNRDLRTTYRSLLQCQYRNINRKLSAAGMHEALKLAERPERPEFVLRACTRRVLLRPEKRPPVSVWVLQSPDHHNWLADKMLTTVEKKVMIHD
rNNR_BungSens, sequence (Q05941 23-502): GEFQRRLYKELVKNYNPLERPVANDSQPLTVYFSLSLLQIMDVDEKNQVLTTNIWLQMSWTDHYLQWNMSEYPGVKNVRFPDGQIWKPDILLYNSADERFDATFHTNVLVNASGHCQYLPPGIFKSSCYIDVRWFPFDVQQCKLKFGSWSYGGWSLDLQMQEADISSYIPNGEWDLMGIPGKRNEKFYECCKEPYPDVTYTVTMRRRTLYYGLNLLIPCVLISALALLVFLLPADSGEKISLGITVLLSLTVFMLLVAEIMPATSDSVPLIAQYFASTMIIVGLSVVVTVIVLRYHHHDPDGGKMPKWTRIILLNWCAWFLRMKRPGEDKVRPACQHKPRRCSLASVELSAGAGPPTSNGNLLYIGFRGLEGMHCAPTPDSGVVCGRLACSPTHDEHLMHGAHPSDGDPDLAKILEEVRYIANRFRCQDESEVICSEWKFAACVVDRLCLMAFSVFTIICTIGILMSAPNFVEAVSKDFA
hNTS, sequence (P30989 whole entry): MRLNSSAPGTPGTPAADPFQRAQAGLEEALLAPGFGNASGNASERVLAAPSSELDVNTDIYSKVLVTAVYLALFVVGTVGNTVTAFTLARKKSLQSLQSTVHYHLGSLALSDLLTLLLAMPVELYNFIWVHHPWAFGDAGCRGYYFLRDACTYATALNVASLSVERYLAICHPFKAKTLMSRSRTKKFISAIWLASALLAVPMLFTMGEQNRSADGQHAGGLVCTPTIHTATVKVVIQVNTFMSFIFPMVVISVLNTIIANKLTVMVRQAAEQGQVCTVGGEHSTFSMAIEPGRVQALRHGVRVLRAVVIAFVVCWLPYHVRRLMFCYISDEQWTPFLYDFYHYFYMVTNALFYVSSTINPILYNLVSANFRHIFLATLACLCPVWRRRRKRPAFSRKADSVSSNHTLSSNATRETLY
mCCKAPeripheral, sequence (O08786 whole entry): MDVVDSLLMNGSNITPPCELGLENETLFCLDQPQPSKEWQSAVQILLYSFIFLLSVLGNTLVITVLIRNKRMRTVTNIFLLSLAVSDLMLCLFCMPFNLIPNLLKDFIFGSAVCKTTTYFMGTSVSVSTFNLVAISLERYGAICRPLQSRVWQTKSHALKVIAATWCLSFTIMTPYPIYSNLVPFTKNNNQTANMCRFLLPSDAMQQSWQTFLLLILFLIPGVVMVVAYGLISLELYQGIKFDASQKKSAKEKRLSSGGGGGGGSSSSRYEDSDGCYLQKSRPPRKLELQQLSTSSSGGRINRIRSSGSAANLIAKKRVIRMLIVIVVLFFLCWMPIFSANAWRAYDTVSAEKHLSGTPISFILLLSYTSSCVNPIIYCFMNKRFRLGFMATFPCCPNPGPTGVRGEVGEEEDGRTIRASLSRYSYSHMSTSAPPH
hETA, sequence (P25101 21-427): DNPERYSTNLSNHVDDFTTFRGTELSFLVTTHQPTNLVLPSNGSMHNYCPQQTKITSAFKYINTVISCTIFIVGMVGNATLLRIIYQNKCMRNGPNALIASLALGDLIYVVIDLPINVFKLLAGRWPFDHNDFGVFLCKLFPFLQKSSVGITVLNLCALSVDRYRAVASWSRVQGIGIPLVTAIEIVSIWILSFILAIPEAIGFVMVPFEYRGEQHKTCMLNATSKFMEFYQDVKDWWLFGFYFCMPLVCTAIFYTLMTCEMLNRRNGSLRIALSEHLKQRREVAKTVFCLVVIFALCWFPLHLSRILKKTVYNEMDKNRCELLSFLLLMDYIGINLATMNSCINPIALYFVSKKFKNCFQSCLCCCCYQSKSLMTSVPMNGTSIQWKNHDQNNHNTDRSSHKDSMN

Compound: CNCc1cc(F)ccc1Oc1ccc(Cl)c(Cl)c1 [1-[2-(3,4-dichlorophenoxy)-5-fluorophenyl]-N-methylmethanamine]
- AC50 at the lowest concentration tested (LCT) (rSERT): TR_rSERT

Compound: CS(=O)(=O)O.Cc1nccn1-c1ccc(Sc2cccc(C3(C(N)=O)CCOCC3)c2)cc1 [4-(3-{[4-(2-methyl-1H-imidazol-1-yl)phenyl]sulfanyl}phenyl)tetrahydro-2H-pyran-4-carboxamide methanesulfonate]
- AC50 at the lowest concentration tested (LCT) (gDAT): TR_gDAT

Compound: CCOc1cccc(-n2cc(C(=O)N3CCN(c4cc(C(=O)[O-])c5ccccc5c4)CC3)nc2-c2ccc(C)cc2)c1.[Na+] [CP-457920 pharma]
- AC50 at the lowest concentration tested (LCT) (bGABARa5): LGIC_bGABARa5

Compound: O=C(N[C@H]1CN2CCC1CC2)c1cc2ccoc2cn1 [PHA-00543613 pharma]
- AC50 at the lowest concentration tested (LCT) (rNNR_BungSens): LGIC_rNNR_BungSens

Compound: CCCCc1ccc2c(n1)[C@@H](c1ccc(OC)cc1C[C@H](C)C(=O)[O-])[C@H](C(=O)[O-])[C@H]2c1ccc2c(c1)OCO2.[Na+].[Na+] [disodium (5S,6R,7R)-5-(1,3-benzodioxol-5-yl)-2-butyl-7-{2-[(2S)-2-carboxylatopropyl]-4-methoxyphenyl}-6,7-dihydro-5H-cyclopenta[b]pyridine-6-carboxylate]
- AC50 at the lowest concentration tested (LCT) (hETA): GPCR_hETA

Compound: CN1CCN(c2ccccc2/C=C2\SCCN(c3ccc(Cl)c(Cl)c3)C2=O)CC1 [elzasonan (CP-448187 pharma), elzasonan]
- AC50 at the lowest concentration tested (LCT) (hAdrb2): GPCR_hAdrb2

Compound: CCOC(=O)COc1cc(-n2ncc(C(F)(F)F)c(C)c2=O)c(F)cc1Cl [flufenpyr-ethyl]
- AC50 at the lowest concentration tested (LCT) (hCYP4F12): ADME_hCYP4F12_Activator

Compound: CCOc1cccc(-n2cc(C(=O)N3CCN(c4cc(C(=O)[O-])c5ccccc5c4)CC3)nc2-c2ccc(C)cc2)c1.[Na+] [sodium 3-(4-{[1-(3-ethoxyphenyl)-2-(4-methylphenyl)-1H-imida] [sodium 3-(4-{[1-(3-ethoxyphenyl)-2-(4-methylphenyl)-1H-imidazol-4-yl]carbonyl}piperazin-1-yl)naphthalene-1-carboxylate]
- AC50 at the lowest concentration tested (LCT) (mCCKAPeripheral): GPCR_mCCKAPeripheral

Compound: CCCN(CC)CC1COC2(CCC(C(C)(C)C)CC2)O1 (stereo not drawn) [spiroxamine]
- AC50 at the lowest concentration tested (LCT) (gSIGMA_NonSelective): OR_gSIGMA_NonSelective

Compound: NC(=O)Cn1c(=O)cc(CCN2CCN(c3nccc4sccc34)CC2)c2ccc(F)cc21 [trelanserin (SL650472 pharma), trelanserin]
- AC50 at the lowest concentration tested (LCT) (hDRD1): GPCR_hDRD1
- AC50 at the lowest concentration tested (LCT) (hDRD4.4): GPCR_hDRD1/4.4
- AC50 at the lowest concentration tested (LCT) (p5HT2C): p5HT2C
- AC50 at the lowest concentration tested (LCT) (r5HT_NonSelective): r5HT_NonSelective
- AC50 at the lowest concentration tested (LCT) (h5HT2A): GPCR_h5HT2A
- AC50 at the lowest concentration tested (LCT) (h5HT7): GPCR_h5HT2A/7

Compound: emamectin benzoate
- AC50 at the lowest concentration tested (LCT) (hNTS): GPCR_hNTS

Compound: mancozeb
- AC50 at the lowest concentration tested (LCT) (hDUSP3): ENZ_hDUSP3
- effect on kinase and phosphatase assays, in words (kinases and phosphatases): affected multiple kinase and phosphatase assays
